According to patent US10807992B2, “Single enantiomer antiparasitic compounds” (priority 2017, dated 2020):

Key:
Ctenocephalides felis = assay: In vitro contact activity against fleas (coated substrate); conditions: for mortality at 0.006 ppm: Trial 3, dose 0.006 ppm; for mortality at 0.024 ppm: Trial 3, dose 0.024 ppm; for mortality at 0.098 ppm: Trial 3, dose 0.098 ppm; for mortality at 0.39 ppm: Trial 3, dose 0.39 ppm; for mortality at 1.56 ppm: Trial 3, dose 1.56 ppm; for mortality at 6.25 ppm: Trial 3, dose 6.25 ppm; for mortality at 25 ppm: Trial 3, dose 25 ppm; for mortality at 100 ppm: Trial 3, dose 100 ppm
Description: Ctenocephalides felis (Avista Pharma, Inc., RTP, NC), 1-7days post hatch, held in an environmental chamber at 24° C., 85% humidity.
For flea contact tests, vial caps were pre-drilled with a single hole in the center of each cap to allow air exchange. A filter paper (Whatman Grade 540 2.1 cm) was placed in the lid of each vial. Pipe cleaners cut to 0.5 inches were inserted in each test vial. An aliquot was taken from each compound stock and added to an acetone/triton solution to achieve the desired top concentrations for the study. Serial dilutions were conducted from the top dose (i.e. 100 ppm) to achieve the desired concentration for EC50 and EC90 determination. The final DMSO concentration was 0.5%. A 75 μL aliquot of each compound formulation was added to each 0.5 inch pipe cleaner contained in the treatment vial. The vials were loosely capped and allowed to dry for a minimum of four hours in a chemical fume hood.
Compounds tested were C1 racemate, the C1 (R) enantiomer, and the C1 (S) enantiomer. For Trial 3, the C1 (R) enantiomer and the C1 (S) enantiomer were further chiral purified to achieve >99% purity.
For both contact and ingestion assays, ten newly emerged unfed adult fleas, 0-7 days old Ctenocephalides felis, from a laboratory colony, were aspirated into each vial or cage. The test vials for contact assays were held in an environmental chamber at 24° C., 80% humidity with light/dark cycles (12 hours each). The cages for flea ingestion assays were held in a temperature-controlled artificial feeding apparatus to allow continual access to organic bovine blood containing the desired concentration of compound. Fresh aliquots of compound-spiked bovine blood were provided daily for the duration of the study.
Fleas were evaluated for percent mortality at various time points between 2 hours and 48 hours post infestation. Fleas showing normal movement and/or jumping ability were considered viable and those showing no movement after tapping the vials were scored as dead.

[1] = system: Ctenocephalides felis (flea), Ixodidae (tick), and Aedes aegypti (mosquito); assay: Bio-profiling of C1 racemate and enantiomers, overall conclusions of contact and ingestion assays; conditions: adult ticks, contact assays
Source text: 1-[6-[5-(3,5-dichloro-4-fluoro-phenyl)-5-(trifluoromethyl)-4H-isothiazol-3-yl]spiro[1H-isobenzofuran-3,3′-azetidine]-1′-yl]-3,3,3-trifluoro-propan-1-one (referred to herein as C1 racemate) is an isothiazoline compound consisting of two isomers: (R)-1-[6-[5-(3,5-dichloro-4-fluoro-phenyl)-5-(trifluoromethyl)-4H-isothiazol-3-yl]spiro[1H-isobenzofuran-3,3′-azetidine]-1′-yl]-3,3,3-trifluoro-propan-1-one (referred herein as C1 (R) enantiomer) and (S)-1-[6-[5-(3,5-dichloro-4-fluoro-phenyl)-5-(trifluoromethyl)-4H-isothiazol-3-yl]spiro[1H-isobenzofuran-3,3′-azetidine]-1′-yl]-3,3,3-trifluoro-propan-1-one (referred to herein as C1 (S) enantiomer). The racemic compound and the two enantiomers were tested against adult stages of Ctenocephalides felis (flea) Ixodidae (tick), and Aedes aegypti (mosquito). The compounds were solubilized in DMSO or an acetone/triton solution and dose response curves were generated for the individual compounds.
For evaluation of contact activity, coated-substrate (flea) and coated-vial (tick and mosquito) assay procedures were used. For evaluation of flea ingestion activity, an artificial feeding assay procedure was used. Insecticidal activity was evaluated at various time-points for each assay. Dose response curves were generated in duplicate on three independent test occasions (Trial 1-Trial 3) and EC50 and EC90 values were calculated.
Therefore, mortality correction was not performed in the assays. Calculation of EC50 and EC90 values was performed using XLfit. Both EC50 and EC90 values were calculated using the average of the two replicates for each Trial.
The C1 (R) enantiomer, C1 (S) enantiomer, and the C1 racemate were successfully evaluated against flea, tick, and mosquito contact and ingestion in vitro screening assays.

O=C(CC(F)(F)F)N1CC2(C1)OCc1cc(C3=NSC(c4cc(Cl)c(F)c(Cl)c4)(C(F)(F)F)C3)ccc12 (racemic) [C1 racemate, 1-[6-[5-(3,5-dichloro-4-fluoro-phenyl)-5-(trifluoromethyl)-4H-isothiazol-3-yl]spiro[1H-isobenzofuran-3,3′-azetidine]-1′-yl]-3,3,3-trifluoro-propan-1-one]
mortality at 0.006 ppm (Ctenocephalides felis; 6 h, Rep1): 0%
mortality at 0.006 ppm (Ctenocephalides felis; 6 h, Rep2): 0%
mortality at 0.024 ppm (Ctenocephalides felis; 6 h, Rep1): 0%
mortality at 0.024 ppm (Ctenocephalides felis; 6 h, Rep2): 0%
mortality at 0.098 ppm (Ctenocephalides felis; 6 h, Rep1): 0%
mortality at 0.098 ppm (Ctenocephalides felis; 6 h, Rep2): 0%
mortality at 0.39 ppm (Ctenocephalides felis; 6 h, Rep1): 0%
mortality at 0.39 ppm (Ctenocephalides felis; 6 h, Rep2): 0%
mortality at 1.56 ppm (Ctenocephalides felis; 6 h, Rep1): 0%
mortality at 1.56 ppm (Ctenocephalides felis; 6 h, Rep2): 0%
mortality at 6.25 ppm (Ctenocephalides felis; 6 h, Rep1): 0%
mortality at 6.25 ppm (Ctenocephalides felis; 6 h, Rep2): 0%
mortality at 25 ppm (Ctenocephalides felis; 6 h, Rep1): 0%
mortality at 25 ppm (Ctenocephalides felis; 6 h, Rep2): 0%
mortality at 100 ppm (Ctenocephalides felis; 6 h, Rep1): 0%
mortality at 100 ppm (Ctenocephalides felis; 6 h, Rep2): 0%
mortality at 0.006 ppm (Ctenocephalides felis; 24 h, Rep1): 0%
mortality at 0.006 ppm (Ctenocephalides felis; 24 h, Rep2): 0%
mortality at 0.024 ppm (Ctenocephalides felis; 24 h, Rep1): 0%
mortality at 0.024 ppm (Ctenocephalides felis; 24 h, Rep2): 0%
mortality at 0.098 ppm (Ctenocephalides felis; 24 h, Rep1): 0%
mortality at 0.098 ppm (Ctenocephalides felis; 24 h, Rep2): 0%
mortality at 0.39 ppm (Ctenocephalides felis; 24 h, Rep1): 0%
mortality at 0.39 ppm (Ctenocephalides felis; 24 h, Rep2): 0%
mortality at 1.56 ppm (Ctenocephalides felis; 24 h, Rep1): 0%
mortality at 1.56 ppm (Ctenocephalides felis; 24 h, Rep2): 0%
mortality at 6.25 ppm (Ctenocephalides felis; 24 h, Rep1): 0%
mortality at 6.25 ppm (Ctenocephalides felis; 24 h, Rep2): 0%
mortality at 25 ppm (Ctenocephalides felis; 24 h, Rep1): 0%
mortality at 25 ppm (Ctenocephalides felis; 24 h, Rep2): 0%
mortality at 100 ppm (Ctenocephalides felis; 24 h, Rep1): 70%
mortality at 100 ppm (Ctenocephalides felis; 24 h, Rep2): 40%
mortality at 0.006 ppm (Ctenocephalides felis; 48 h, Rep1): 0%
mortality at 0.006 ppm (Ctenocephalides felis; 48 h, Rep2): 0%
mortality at 0.024 ppm (Ctenocephalides felis; 48 h, Rep1): 0%
mortality at 0.024 ppm (Ctenocephalides felis; 48 h, Rep2): 0%
mortality at 0.098 ppm (Ctenocephalides felis; 48 h, Rep1): 0%
mortality at 0.098 ppm (Ctenocephalides felis; 48 h, Rep2): 0%
mortality at 0.39 ppm (Ctenocephalides felis; 48 h, Rep1): 0%
mortality at 0.39 ppm (Ctenocephalides felis; 48 h, Rep2): 0%
mortality at 1.56 ppm (Ctenocephalides felis; 48 h, Rep1): 0%
mortality at 1.56 ppm (Ctenocephalides felis; 48 h, Rep2): 0%
mortality at 6.25 ppm (Ctenocephalides felis; 48 h, Rep1): 0%
mortality at 6.25 ppm (Ctenocephalides felis; 48 h, Rep2): 0%
mortality at 25 ppm (Ctenocephalides felis; 48 h, Rep1): 80%
mortality at 25 ppm (Ctenocephalides felis; 48 h, Rep2): 70%
mortality at 100 ppm (Ctenocephalides felis; 48 h, Rep1): 100%
mortality at 100 ppm (Ctenocephalides felis; 48 h, Rep2): 100%
potency against ticks [1]: excellent potency against ticks
